Test [1] concerns Enterococcus faecalis EFS.201 (ATCC 49452). Format: cell-based. The procedure, abridged: (§1)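 Susceptibility is measured by modified CLSI broth microdilution using calcium-supplemented Mueller Hinton broth (50 mg/L) and an inoculum of 5×10^5 bacteria. MIC values in μg/mL mark the lowest concentration that leaves no visible turbidity.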
Test [2] relates to Enterococcus faecalis EFS.312, Daptomycin resistant mutant (EFA). Format: cell-based. The note with it: MHBc with 50 mg/L calcium, 18-20 hours at 37° C. The essentials: as §1
Test [3] concerns Enterococcus faecium EFM.14 (ATCC 6569). Format: cell-based. The essentials: as §1
The subject of test [4] is Enterococcus faecium EFM.384, Daptomycin resistant mutant (14-A). Format: cell-based. Conditions: MHBc with 50 mg/L calcium, 18-20 hours at 37° C. The essentials: as §1
The test system of test [5] is Staphylococcus aureus SAU.278, Daptomycin resistant mutant (D10). It counts as cell-based. The note with it: MHBc with 50 mg/L calcium, 18-20 hours at 37° C. The essentials: as §1
Test [6] relates to Staphylococcus aureus SAU.399 (ATCC 43300), Methicillin and Oxacillin Resistant. Format: cell-based. The essentials: as §1
The subject of test [7] is Staphylococcus aureus SAU.42 (ATCC 29213). Format: cell-based. The essentials:
as §1

For test [8], the system named is Clostridium difficile.
Where [9] appears, read: MHBc with 50 mg/L calcium, 18-20 hours at 37° C.

Each structure is given as a SMILES string. Where “and” joins values, the source holds several entries; their conditions need not be identical. Equal entries are not always repeated. Where two headings read alike, the source gives them in different places.

As for `CCCCCCCCCCCCCCC(=O)N[C@@H](Cc1c[nH]c2ccccc12)C(=O)N[C@H](CC(N)=O)C(=O)N[C@@H](CC(=O)O)C(=O)N[C@@H]1C(=O)NCC(=O)N[C@@H](CCCN)C(=O)N[C@@H](CC(=O)O)C(=O)N[C@H](C)C(=O)N[C@@H](CC(=O)O)C(=O)NCC(=O)N[C@H](CO)C(=O)N[C@@H]([C@H](C)CC(=O)O)C(=O)N[C@@H](CC(=O)c2ccccc2N)C(=O)O[C@@H]1C` [Compound 7], the “Efs201 MIC” value in test [1] (ATCC 49452) turned out to be 0.25 µg/mL. Moreover, the “Efs312 MIC” value in test [2] was found to be 4 µg/mL. Further, in test [3] (ATCC 6569), the “Efm14 MIC” value is 0.5 µg/mL. For the same molecule, in test [4], the “Efm384 MIC” value worked out at 4 µg/mL. Besides, in test [5], the “Sa278 MIC” value worked out at 2 µg/mL. Further, the “Sa399 MIC” value in test [6] (ATCC 43300) came to 0.5 µg/mL. Besides, the “Sa42 MIC” value in test [7] (ATCC 29213) was found to be 1 µg/mL. Moreover, in test [8], the “C. diff MIC90” value is 16 µg/mL.

With `C[C@H](CC(=O)O)[C@@H]1NC(=O)[C@@H](CO)NC(=O)CNC(=O)[C@H](CC(=O)O)NC(=O)[C@@H](C)NC(=O)[C@H](CC(=O)O)NC(=O)[C@H](CCCN)NC(=O)CNC(=O)[C@@H](NC(=O)[C@H](CC(=O)O)NC(=O)[C@@H](CC(N)=O)NC(=O)[C@H](Cc2c[nH]c3ccccc23)NC(=O)c2ccc(-c3ccc(-c4ccccc4)cc3)s2)[C@@H](C)OC(=O)[C@H](CC(=O)c2ccccc2N)NC1=O` [Compound 52, N-[5-(biphenyl-4-yl)thiophene-2-carbonyl]-L-tryptophyl-D-asparaginyl-L-α-aspartyl-L-threonylglycyl-L-ornithyl-L-α-aspartyl-D-alanyl-L-α-aspartylglycyl-D-seryl-(3R)-3-methyl-L-α-glutamyl-(αS)-α,2-diamino-γ-oxobenzenebutanoic acid (13→4)-lactone], in test [1] (setting [9]), the “Efs201 MIC” value was determined as 0.5 µg/mL. Also, the “Efs312 MIC” value in test [2] is 8 µg/mL and 16 µg/mL. In test [3] (setting [9]), the “Efm14 MIC” value is 1 µg/mL and 0.5 µg/mL. Also, the “Efm384 MIC” value in test [4] turned out to be 4 µg/mL. In test [5], the “Sa278 MIC” value turned out to be 0.5 µg/mL. Further, the “Sa399 MIC” value in test [6] (setting [9]) stood at 0.25 µg/mL. Also, in test [7] (setting [9]), the “Sa42 MIC” value was 0.25 µg/mL. Moreover, in test [8], the “C. diff MIC90” value was 2 µg/mL.

In the case of `CCCCCCCCCCCCCCCOc1ccc(C(=O)N[C@@H](Cc2c[nH]c3ccccc23)C(=O)N[C@H](CC(N)=O)C(=O)N[C@@H](CC(=O)O)C(=O)N[C@@H]2C(=O)NCC(=O)N[C@@H](CCCN)C(=O)N[C@@H](CC(=O)O)C(=O)N[C@H](C)C(=O)N[C@@H](CC(=O)O)C(=O)NCC(=O)N[C@H](CO)C(=O)N[C@@H]([C@H](C)CC(=O)O)C(=O)N[C@@H](CC(=O)c3ccccc3N)C(=O)O[C@@H]2C)cc1` [Compound 40], in test [1] (setting [9]), the “Efs201 MIC” value is 4.0 µg/mL. Also, the “Efs312 MIC” value in test [2] is 8 µg/mL. For the same molecule, the “Efm14 MIC” value in test [3] (setting [9]) amounted to 32.0 µg/mL. The “Efm384 MIC” value in test [4] was 32 µg/mL. Besides, the “Sa278 MIC” value in test [5] amounted to 16.00 µg/mL. Moreover, in test [6] (setting [9]), the “Sa399 MIC” value was determined as 4.000 µg/mL. For the same molecule, in test [7] (setting [9]), the “Sa42 MIC” value came out at 4.00 µg/mL. In addition, in test [8], the “C. diff MIC90” value came out at 32 µg/mL.

In the case of `C[C@H](CC(=O)O)[C@@H]1NC(=O)[C@@H](CO)NC(=O)CNC(=O)[C@H](CC(=O)O)NC(=O)[C@@H](C)NC(=O)[C@H](CC(=O)O)NC(=O)[C@H](CCCN)NC(=O)CNC(=O)[C@@H](NC(=O)[C@H](CC(=O)O)NC(=O)[C@@H](CC(N)=O)NC(=O)[C@H](Cc2c[nH]c3ccccc23)NC(=O)C2CCC(c3ccc(Cl)cc3)CC2)[C@@H](C)OC(=O)[C@H](CC(=O)c2ccccc2N)NC1=O` (stereo partly shown) [Compound 67], the “Efs201 MIC” value in test [1] (ATCC 49452) was 4 µg/mL. For the same molecule, the “Efs312 MIC” value in test [2] was above 32 µg/mL. Further, the “Efm14 MIC” value in test [3] (ATCC 6569) was determined as 8 µg/mL. The “Efm384 MIC” value in test [4] is above 32 µg/mL. In addition, the “Sa278 MIC” value in test [5] came out at 4 µg/mL. In addition, the “Sa399 MIC” value in test [6] (ATCC 43300) amounted to 4 µg/mL. The “Sa42 MIC” value in test [7] (ATCC 29213) is 0.5 µg/mL. Also, the “C. diff MIC90” value in test [8] was 4 µg/mL.

As for `CCCCCCOc1ccc(/C=C/C(=O)N[C@@H](Cc2c[nH]c3ccccc23)C(=O)N[C@H](CC(N)=O)C(=O)N[C@@H](CC(=O)O)C(=O)N[C@@H]2C(=O)NCC(=O)N[C@@H](CCCN)C(=O)N[C@@H](CC(=O)O)C(=O)N[C@H](C)C(=O)N[C@@H](CC(=O)O)C(=O)NCC(=O)N[C@H](CO)C(=O)N[C@@H]([C@H](C)CC(=O)O)C(=O)N[C@@H](CC(=O)c3ccccc3N)C(=O)O[C@@H]2C)cc1` [Compound 42], the “Efs201 MIC” value in test [1] (setting [9]) worked out at 1 µg/mL. For the same molecule, the “Efm14 MIC” value in test [3] (setting [9]) is 2 µg/mL. Besides, the “Efm384 MIC” value in test [4] came out at 8 µg/mL. The “Sa278 MIC” value in test [5] was determined as 4 µg/mL. The “Sa399 MIC” value in test [6] (setting [9]) came out at 1 µg/mL. In addition, in test [7] (setting [9]), the “Sa42 MIC” value amounted to 0.5 µg/mL. Also, the “C. diff MIC90” value in test [8] is 0.5 µg/mL.

For the molecule `CC(C)CCCCCCC(=O)N[C@@H](Cc1c[nH]c2ccccc12)C(=O)N[C@H](CC(N)=O)C(=O)N[C@@H](CC(=O)O)C(=O)N[C@@H]1C(=O)NCC(=O)N[C@@H](CCCN)C(=O)N[C@@H](CC(=O)O)C(=O)N[C@H](C)C(=O)N[C@@H](CC(=O)O)C(=O)NCC(=O)N[C@H](CO)C(=O)N[C@@H]([C@H](C)CC(=O)O)C(=O)N[C@@H](CC(=O)c2ccccc2N)C(=O)O[C@@H]1C` [Compound 9], the “Efs201 MIC” value in test [1] (ATCC 49452) was determined as 4 µg/mL. Further, in test [2], the “Efs312 MIC” value was above 32 µg/mL. Besides, the “Efm14 MIC” value in test [3] (ATCC 6569) came to 4 µg/mL. Besides, in test [4], the “Efm384 MIC” value is 32 µg/mL. In test [5], the “Sa278 MIC” value came to 8 µg/mL. Also, the “Sa399 MIC” value in test [6] (ATCC 43300) stood at 0.5 µg/mL. For the same molecule, in test [7] (ATCC 29213), the “Sa42 MIC” value was determined as 0.5 µg/mL.

Turning to `CC(C)Sc1ccc(-c2csc(C(=O)N[C@@H](Cc3c[nH]c4ccccc34)C(=O)N[C@H](CC(N)=O)C(=O)N[C@@H](CC(=O)O)C(=O)N[C@@H]3C(=O)NCC(=O)N[C@@H](CCCN)C(=O)N[C@@H](CC(=O)O)C(=O)N[C@H](C)C(=O)N[C@@H](CC(=O)O)C(=O)NCC(=O)N[C@H](CO)C(=O)N[C@@H]([C@H](C)CC(=O)O)C(=O)N[C@@H](CC(=O)c4ccccc4N)C(=O)O[C@@H]3C)c2)cc1` [Compound 55], the “Efs201 MIC” value in test [1] (ATCC 49452) was 2 µg/mL. In addition, the “Efs312 MIC” value in test [2] is above 32 µg/mL. Besides, the “Efm14 MIC” value in test [3] (ATCC 6569) amounted to 2 µg/mL. Besides, the “Efm384 MIC” value in test [4] amounted to 8 µg/mL. The “Sa278 MIC” value in test [5] was 4 µg/mL. For the same molecule, in test [6] (ATCC 43300), the “Sa399 MIC” value turned out to be 0.25 µg/mL. In addition, the “Sa42 MIC” value in test [7] (ATCC 29213) came to 0.5 µg/mL.

For the molecule `CCCCCCC1CCC(c2ccc(C(=O)N[C@@H](Cc3c[nH]c4ccccc34)C(=O)N[C@H](CC(N)=O)C(=O)N[C@@H](CC(=O)O)C(=O)N[C@@H]3C(=O)NCC(=O)N[C@@H](CCCN)C(=O)N[C@@H](CC(=O)O)C(=O)N[C@H](C)C(=O)N[C@@H](CC(=O)O)C(=O)NCC(=O)N[C@H](CO)C(=O)N[C@@H]([C@H](C)CC(=O)O)C(=O)N[C@@H](CC(=O)c4ccccc4N)C(=O)O[C@@H]3C)cc2)CC1` (single isomer, unassigned) [54 isomer II], the “Efs201 MIC” value in test [1] (ATCC 49452) amounted to 2 µg/mL. Further, the “Efm14 MIC” value in test [3] (ATCC 6569) is 1 µg/mL. Moreover, in test [6] (ATCC 43300), the “Sa399 MIC” value was determined as 1 µg/mL. Besides, the “Sa42 MIC” value in test [7] (ATCC 29213) is 1 µg/mL. Further, in test [8], the “C. diff MIC90” value came to 4 µg/mL.

For the origin of these results see patent US20150337013A1, “NOVEL ANTIBACTERIAL AGENTS FOR THE TREATMENT OF GRAM POSITIVE INFECTIONS” (priority 2008, published 2015).
